According to patent US20160237400A1, “ISOLATION OF NON-EMBRYONIC STEM CELLS AND USES THEREOF” (The Jackson Laboratory, priority 2013, published 2016):
“Also recorded” adds a separate entry of the source.

Assays:
[1] = system: CSC pedigrees sampled from Groups B, C, D, E, F and G of the IC#1 library; experiment: paclitaxel challenge of sampled CSC pedigrees of Groups B to G; type: cell-based, human
[2] = system: N11 CSC pedigree (IC#1 library); experiment: paclitaxel challenge of sampled CSC pedigree N11; type: cell-based, human
[3] = system: CSCs from the IC#1 library (G0), high-grade ovarian cancer; experiment: plate (colony formation) assay, rhodamine B stain, treatment-naive CSC library; type: cell-based, human
Protocol: To probe for paclitaxel resistance in the IC#1 library of CSCs, a paclitaxel dose-response curved were established by challenging 10,000 CSCs with a spectrum of paclitaxel concentrations. […] The plates were then stained with rhodamine B. Rhodamine B-stained 100 nM paclitaxel treatment plate yielded less than 0.1% of the control colonies.
(§1) Survivors were re-plated en masse, and cycled through two additional rounds of 100 nM paclitaxel for 3 hours with recovery in between for 10 days, after which visible colonies were selected and individually expanded as pedigrees (FIG. 28B). To determine relationships between these ad hoc, paclitaxel-resistant pedigrees from the library and the 92 randomly sampled pedigrees from the treatment-naïve IC#1 library assessed for CSC heterogeneity, their CNV profiles were mapped onto the heterogeneity map established for IC#1.
(§2) High-grade ovarian cancer was surgically resected, and tumor tissue was collected into cold F12 media (Gibco, USA) with 5% fetal bovine serum (HyClone, USA) and then minced by sterile scalpel into 0.2-0.5 mm^3 sizes to a viscous and homogeneous appearance. The minced tissue was digested in 2 mg/mL collagenase type IV (Gibco, USA) at 37° C. for 30-60 min with agitation. Dissociated cells were passed through a 70 μm Nylon mesh (Falcon, USA) to remove aggregates and then were washed four times in cold F12 media, and then seeded onto a feeder layer of lethally irradiated 3T3-J2 cells in c-FAD media modified to SCM-68 media by the addition of 125 ng/mL R-spondin1 (R&D systems, USA), 1 μM Jagged-1 (AnaSpec Inc., USA), 100 ng/ml human Noggin (Peprotech, USA), 2.5 μM Rock-inhibitor (Calbiochem, USA), 2 μM SB431542 (Cayman chemical, USA), and 10 mM nicotinamide (Sigma-Aldrich, USA).
Cells were cultured at 37° C. in a 7.5% CO2 incubator. The culture media was replaced every two days. Colonies were digested by 0.25% trypsin-EDTA solution (Gibco, USA) for 5-8 min and passaged every 7 to 10 days. […]

[4] = system: CSCs from the IC#2 library; experiment: paclitaxel challenge of IC#2 CSCs; type: cell-based, human; conditions: parameters identical to IC#1 (100 nM, 3 hours, three rounds); 37 individual CSCs
[5] = system: CD166hi CSC clones from the IC#1 library; experiment: drug challenge of CD166hi sorted CSC clones; type: cell-based, human; conditions: clones flow sorted for CD166 from the IC#1 library, individually tested
[6] = system: paclitaxel resistant (G3) IC#1 CSC library; experiment: plate (colony formation) assay, paclitaxel-resistant CSC library; type: cell-based, human
Protocol: as §1
The GSEA data in the table above highlighted the PGR pathway. Analysis of gene expression in the IC#1 CSC library treated with successive rounds of paclitaxel indeed confirmed a progressive increase in PGR expression (FIG. 31). […] The fate of 25,000 colony forming units from the IC#1 CSC library and the paclitaxel resistant library (G3) following exposure to combinations of paclitaxel, RU486, and cisplatin were directly compared. RU486 is a PGR antagonist that has previously been tested and failed as a single agent in clinical trials for recurrent ovarian cancer.
Next, the long-term impact of these drug combinations on the paclitaxel-resistant G3 pool over successive rounds of exposure was investigated.
as §2
Cells were cultured at 37° C. in a 7.5% CO2 incubator. The culture media was replaced every two days. Colonies were digested by 0.25% trypsin-EDTA solution (Gibco, USA) for 5-8 min and passaged every 7 to 10 days. Colonies were trypsinized by TrypLE Express solution (Gibco, USA) for 8-15 min at 37° C. and cell suspensions were passed through 30 μm filters (Miltenyi Biotec, Germany). Approximately 20,000 epithelial cells were seeded to each well of 6-well plate. Cloning cylinder (Pyrex, USA) and high vacuum grease (Dow Corning, USA) were used to select single colonies for pedigrees. Gene expression analyses were performed on cells derived from passage 2-8 (P2-P8) cultures.

[7] = system: stem cell colonies (DASCp63/Krt5) from Krt6-DTR and WT mouse lung; type: cell-based
[8] = system: Krt5+ / Krt6+ cells in lung of Krt6-DTR mice; conditions: in vivo

## CC(=O)O[C@H]1C(=O)[C@@]2(C)[C@H]([C@H](OC(=O)c3ccccc3)[C@]3(O)C[C@H](OC(=O)[C@H](O)[C@@H](NC(=O)c4ccccc4)c4ccccc4)C(C)=C1C3(C)C)[C@]1(OC(C)=O)CO[C@@H]1C[C@@H]2O [paclitaxel]
[1]; CSCs within group B, third round of paclitaxel
  resistance at the third round: less than 35%
[1]; single dose of 100 nM paclitaxel, representative CSCs from the other six clusters
  resistance to initial challenge: little or no resistance
[2]; initial challenge, single dose of 100 nM paclitaxel
  cells survived initial challenge: 17.5%
[2]; third round of paclitaxel
  resistance after two additional challenges: ~100%
[3]; 100 nM paclitaxel for 3 hours, about 10,000 colony-forming units, rhodamine B stain
  colonies relative to control colonies: less than 0.1%
[3]; 25,000 colony-forming units, single agent
  activity against the treatment naive IC#1 G0 library: strong activity
[3]; single dose of 100 nM paclitaxel, IC#1 library
  resistance to initial challenge: little or no resistance
[4]
  survival of triple paclitaxel challenge: none of the 37 individual CSCs from the IC#2 library survived
[5]
  CD166hi clones tested with intrinsic resistance: 21%
[6]; 25,000 colony-forming units, G4 challenge
  survival (colonies) of the paclitaxel-resistant G3 pool: 15%
[6]; Ru486 10 μM, paclitaxel 100 nM, cisplatin 20 μM
  resistance over four additional successive rounds of exposure, measured by colony formation: progressive resistance

## CC(C)C[C@H](NC(=O)[C@H](Cc1ccccc1)NC(=O)c1cnccn1)B(O)O [bortezomib]
[6]
  effect towards resistant CSCs of IC#1 when used together with paclitaxel: synthetic lethality

## diphtheria toxin
[7]
  fate of Krt6-DTR stem cell colonies on diphtheria toxin: die within four days; also recorded: dies after 4 days
  fate of control (WT) colonies on diphtheria toxin: continued to proliferate and expand in size; also recorded: looks normal
  sensitivity of Krt6 negative endothelial cells from Krt6-DTR mice: insensitive
[8]
  reduction of clonogenic cell number versus WT mouse with DT (clonogenic assay): 70-80%
[8]; mouse
  loss of Krt5+ cells compared to wild type controls: 90%
  loss of Krt6+ cells compared to wild type controls: greater than 99%
[8]; mouse, ip
  reduction of Krt5+ cell number versus WT (IF staining): 70%
  reduction of Krt6+ cell number versus WT (IF staining): ~90%

## CC(C)C[C@H](NC(=O)[C@H](CCc1ccccc1)NC(=O)CN1CCOCC1)C(=O)N[C@@H](Cc1ccccc1)C(=O)N[C@@H](CC(C)C)C(=O)[C@@]1(C)CO1 [carfilzomib]
[6]
  effect towards resistant CSCs of IC#1 when used together with paclitaxel: synthetic lethality
